Assay results: patent publication US10501493B2, “Broad spectrum antibiotics” (priority 2011, dated 2019)
Converted amounts (≈) assume the structure as drawn. Like-named read-outs stand apart in the source and are kept apart here.

How the values were obtained:
S. aurues NCTC-8325 = experiment: In vitro antimicrobial activity, MIC by broth micro-dilution; type: cell-based, S. aureus; settings: for MIC: Staphylococcus aureus, NCTC8325, read-out: MIC class, S. aurues NCTC-8325
Experimental: (§1) In vitro antimicrobial activity of each compound was determined by measuring minimal inhibitor concentrations (MICs) using the broth micro-dilution technique as approved by the Clinical and Laboratory Standards Institute (CLSI). The microbiological panel examined contains a number of bacterial species including E. coli MG1655, P. aeruginosa, S. aureus, and S. epidermidis. In addition, the panel includes previously described pseudo-isogenic strains of these four species (P. A. Smith et al. Chem Biol 2010, 1223-1231), in which a specific proline residue in SPase (called LepB in Gram-negative organisms an SpsB in Gram-positive organisms) has been mutated to a different amino acid. The resulting strains have increased susceptibility to the arylomycin class of antibiotics. Analysis of the strains lacking this proline residue will increases the dynamic range of the assay, and comparison of the sensitivities of the isogenic pairs provides ongoing confirmation that the activity gained through derivatization is specific to the inhibition of SPase. Briefly, bacterial streaks were grown on Mueller Hinton Agar II (Difco™) with or without 5% lysed horse blood for a period of 24 hours at either 35° C. or 28° C. Bacterial colonies were suspended in cation adjusted Mueller Hinton broth and diluted to a final concentration of 1*10^7 colony forming units/ml. Two-fold serial dilutions of each compound were arrayed into 96-well plates (100 μl final volume per well) and 5 ul of the bacterial suspension will be added. […] MICs were periodically checked plating serial dilutions of MIC wells and quantitatively determining viable colonies.

E. coli SPase = molecular target: T1, E. coli SPase (Escherichia coli, UniProt P00803); experiment: Enzymatic fluorogenic substrate cleavage assay for IC50; type: biochemical
T1 construct: Full length His-tagged E. coli SPase proteins were expressed in E. coli BL21(DE3); His-tag; made in house; host or cells: E. coli BL21(DE3)
Experimental: (§2) Full length His-tagged E. coli SPase proteins were expressed in E. coli BL21(DE3) containing the plasmid pET23-lepB, P. A. Smith et al. Chem Biol 2010, 1223-1231. Briefly, saturated overnight cultures grown in 20 ml of Luria-Bertani medium supplemented with ampicillin were subcultures into 1.5 L of Luria-Bertani, and shaken at 37° C. until an optical density at 600 nm of 0.4-0.5 was achieved. Protein expression was induced with Isopropyl β-D-1-thiogalactopyranoside (ITPG) at a final concentration of […], and purified using nickel affinity chromatography. Full length His-tagged S. aureus SPase protein was expressed similarly from E. coli BL21(DE3) containing the plasmid pCDF1-SaSpsB or pCDF1-SaSpsB(P29S) and purified similarly to the E. coli protein with the following exceptions. SPase protein was solubilized using 300 mM NaCl, 20 mM Tris pH 8.06, 5 mM Imidazole, 10% glycerol, 1% Triton X-100, prior to purification in Ni-NTA Superflow resin and resin bound protein was washed in a similar buffer containing 1% Elugent in place of Triton X-100 prior to protein eluted in wash buffer supplemented with 300 mM imidazole. Protein purify was judged to exceed 95% by visual inspection of SDS-PAGE followed by Comassie staining. All protein concentrations were determined by BCA assay.
(§3) In addition to the equilibrium binding assays, compound activity is also characterized by measuring inhibition of E. coli and S. aureus substrate cleavage reactions using fluorogenic peptides developed at RQx Pharmaceuticals. Briefly, two fluorogenic peptide substrates (decanoyl-LSSPA Y^NO2 A ? ADK^abzPD (SEQ ID NO: 1) and decanyol-LTPTAY^NO2 A ? ASKK^abzDD (SEQ ID NO: 2)) have been synthesized, where abz is the fluorescence donor 2-aminobenzamide, YNO2 is the fluorescence acceptor 3-nitrotyrosine, and the cleavage site is indicated with an arrow. These substrates are processed with a second order rate constant (Kcat/KM) of 10^5 M^−1s^−1 for E. coli and S. aureus SPase enzymes, and cleavage results in a greater than 10-fold increase in fluorescence signal (excitation at 314 nm, emission at 416 nm) as measured using a SpectraMax M2 fluorescence microplate reader. Two-folder serial dilutions of compound are prepared in cleavage reaction buffer consisting of: 50 mM Tris-HCl pH 8.0, 100 mM NaCl, 10% glycerol, 1 mM EDTA, detergent (1% NP-40 or 0.1% Elugent™ for E. coli LepB or S. aureus SpsB respectively) and either 2.5 nM of E. coli SPase enzyme or 10 nM of S. aureus SPase enzyme. 40 μl aliquots of the compound dilution series in the protein/buffer solution is transferred to black 384-well polypropylene plates, and 10 μl of fluorogenic peptide at a concentration of 100 μM is added to initiate the reaction. The increase in fluorescence, corresponding to substrate cleavage, is monitored continuously at room temperature for 30 minutes and initial reaction rates are calculated based in the linear increase in fluorescence from the initial 30 minutes of the reaction. Reaction rates are plotted as a function of compound concentration, and IC50 values are determined nonlinear regression analysis (SoftMax® Pro v5.4) of the sigmoidal dose-response curve.

S. aureus SPase = molecular target: T2, S. aureus SPase (Staphylococcus aureus, UniProt P0A070); experiment: as above; type: biochemical
T2 construct: Full length His-tagged S. aureus SPase protein was expressed similarly; His-tag; made in house; host or cells: E. coli BL21(DE3)
Experimental: as §2, §3

E. coli ATCC 25922 = experiment: In vitro antimicrobial activity, MIC by broth micro-dilution; type: cell-based
Experimental: as §1

S. epidermidis RP62A = experiment: as above; type: cell-based; settings: for MIC: Staphylococcus epidermidis, RP62A, read-out: MIC class, S. epidermidis RP62A
Experimental: as §1

S. pneumoniae D39 = experiment: as above; type: cell-based; settings: for MIC: Streptococcus pneumoniae, D39, read-out: MIC class, S. pneumoniae D39
Experimental: as §1

[1] = tested on: S. aureus NCTC-8325 SpsB(P295); experiment: as above; type: cell-based; settings: for MIC: Staphylococcus aureus, NCTC8325, read-out: MIC class, S. aureus NCTC-8325 SpsB(P295)
Experimental: as §1

[2] = tested on: E. col ATCC 25922 LepB(P84L); experiment: as above; type: cell-based, E. coli; settings: for MIC: Escherichia coli, ATCC25922, read-out: MIC class, E. col ATCC 25922 LepB(P84L)
Experimental: as §1

[3] = Escherichia coli, ATCC25922; read-out: MIC class, E. coli ATCC 25922
[4] = fluorogenic peptide cleavage, read-out: IC50 class E. coli SPase
[5] = fluorogenic peptide cleavage, read-out: IC50 class S. aureus SPase

Compound	MIC (S. aurues NCTC-8325) [µg/mL]	IC50 (E. coli SPase) [nM]	IC50 (S. aureus SPase) [nM]	MIC (E. coli ATCC 25922; Escherichia coli, ATCC25922, read-out: MIC class, E. coli ATCC 25922) [µg/mL]	MIC (S. epidermidis RP62A) [µg/mL]	MIC (S. pneumoniae D39) [µg/mL]	MIC [1] [µg/mL]	MIC [2] [µg/mL]	MIC (E. coli ATCC 25922; [3]) [µg/mL]	MIC class, S. aurues NCTC-8325 (S. aurues NCTC-8325)	IC50 (E. coli SPase; [4]) [nM]	IC50 (S. aureus SPase; [5]) [nM]	MIC class, E. coli ATCC 25922 (E. coli ATCC 25922; E. coli ATCC 25922)	MIC class, S. epidermidis RP62A (S. epidermidis RP62A)	MIC class, S. pneumoniae D39 (S. pneumoniae D39)	MIC class, S. aureus NCTC-8325 SpsB(P295) [1]	MIC class, E. col ATCC 25922 LepB(P84L) [2]
CCCCCCCCCCCCCCCC(=O)N(C)[C@H](CO)C(=O)N[C@H](C)C(=O)NCC(=O)N(C)[C@@H]1C(=O)N[C@@H](C)C(=O)N[C@H](C(=O)O)Cc2ccc(OC)c(c2)-c2cc1ccc2OC [Compound 77]	> 64	> 10000	1000 to 10000	> 64	> 64	16 to 64 (≈ 17.6 to 70.4 µM)	16 to 64 (≈ 17.6 to 70.4 µM)	< 8	–	–	–	–	–	–	–	–	–
CCCCCCCCCCCCCCCC(=O)N(C)[C@H](CO)C(=O)N[C@H](C)C(=O)NCC(=O)N(C)[C@@H]1C(=O)N[C@@H](C)C(=O)N[C@H](C(=O)NCC(O)C(=O)O)Cc2ccc(O)c(c2)-c2cc1ccc2O (stereo partly shown) [Compound 78]	> 64	< 1000	> 10000	–	> 64	16 to 64 (≈ 16.5 to 66.1 µM)	> 64	> 64	> 64	–	–	–	–	–	–	–	–
CCCCCCCCCCCCCCCC(=O)N(C)C(CO)C(=O)N[C@H](C)C(=O)NCC(=O)N(C)[C@@H]1C(=O)N[C@@H](C)C(=O)NC(C(=O)NCC(O)C(N)=O)Cc2ccc(O)c(c2)-c2cc1ccc2O (stereo partly shown) [Compound 82]	> 64	1000 to 10000	> 10000	–	> 64	16 to 64 (≈ 16.5 to 66.2 µM)	> 64	> 64	> 64	–	–	–	–	–	–	–	–
CCCCCCCCCCCCCCCC(=O)N(C)[C@H](CO)C(=O)N[C@H](C)C(=O)NCC(=O)N(C)[C@@H]1C(=O)N[C@@H](C)C(=O)N[C@H](C(=O)O)CCCc2ccc(O)c(c2)-c2cc1ccc2O [Compound 83]	–	–	–	–	–	–	–	–	–	a (MIC >64 μg/ml)	1000 to 10000	< 1000	a (MIC >64 μg/ml)	c (MIC ≤8 μg/ml)	c (MIC ≤8 μg/ml)	b (MIC 16-64 μg/ml)	c (MIC ≤8 μg/ml)
CCCCCCCCCCCCCCCC(=O)N(C)[C@H](CO)C(=O)N[C@H](C)C(=O)N(C)CC(=O)N(C)[C@@H]1C(=O)N[C@@H](C)C(=O)N[C@H](C(=O)O)Cc2ccc(O)c(c2)-c2cc1ccc2O [Compound 84]	> 64	< 1000	< 1000	–	16 to 64 (≈ 17.9 to 71.5 µM)	< 8	> 64	> 64	> 64	–	–	–	–	–	–	–	–
CCCCCCCCCCC(=O)N(C)[C@H](CO)C(=O)N[C@H](C)C(=O)NCC(=O)N(C)[C@@H]1C(=O)N[C@@H](C)C(=O)N[C@H](C(=O)O)Cc2ccc(O)c(c2)-c2cc1ccc2O [Compound 85]	> 64	< 1000	1000 to 10000	–	< 8	> 64	> 64	16 to 64 (≈ 19.7 to 78.9 µM)	> 64	–	–	–	–	–	–	–	–
CCCCCCCCCCCCC(=O)N(C)[C@H](CO)C(=O)N[C@H](C)C(=O)NCC(=O)N(C)[C@@H]1C(=O)N[C@@H](C)C(=O)N[C@H](C(=O)O)Cc2ccc(O)c(c2)-c2cc1ccc2O [Compound 86]	> 64	< 1000	< 1000	–	16 to 64 (≈ 19.1 to 76.3 µM)	16 to 64 (≈ 19.1 to 76.3 µM)	< 8	< 8	> 64	–	–	–	–	–	–	–	–
CCCCCCCCCCCCCCCC(=O)N[C@H](CO)C(=O)N[C@H](C)C(=O)N[C@@H](C)C(=O)N(C)[C@@H]1C(=O)N[C@@H](C)C(=O)N[C@H](C(=O)O)Cc2ccc(O)c(c2)-c2cc1ccc2O [Compound 87]	> 64	< 1000	< 1000	–	< 8	> 64	> 64	> 64	> 64	–	–	–	–	–	–	–	–
CCCCCCCCCCCCCCCC(=O)N(C)[C@H](CO)C(=O)N[C@H](C)C(=O)NCC(=O)N(C)[C@@H]1C(=O)N[C@@H](C)C(=O)N[C@H](C(=O)NCC(O)C(=O)NC)Cc2ccc(O)c(c2)-c2cc1ccc2O (stereo partly shown) [Compound 90]	–	–	–	–	–	–	–	–	–	a (MIC >64 μg/ml)	1000 to 10000	1000 to 10000	a (MIC >64 μg/ml)	c (MIC ≤8 μg/ml)	c (MIC ≤8 μg/ml)	a (MIC >64 μg/ml)	a (MIC >64 μg/ml)
CCCCCCCCCCCCCCCC(=O)N(C)[C@H](CO)C(=O)N[C@H](C)C(=O)N[C@@H](C)C(=O)N(C)[C@@H]1C(=O)N[C@@H](C)C(=O)N[C@H](C(=O)O)Cc2ccc(O)c(c2)-c2cc1ccc2O [Compound 91]	> 64	< 1000	< 1000	–	< 8	< 8	> 64	> 64	> 64	–	–	–	–	–	–	–	–
CCCCCCCCCCCCCCCC(=O)N(C)[C@H](CO)C(=O)N[C@H](C)C(=O)NCC(=O)N(C)[C@@H]1C(=O)N[C@@H](C)C(=O)N[C@H](C(=O)NCC=O)CCCc2ccc(O)c(c2)-c2cc1ccc2O [Compound 94]	–	–	–	–	–	–	–	–	–	a (MIC >64 μg/ml)	< 1000	< 1000	a (MIC >64 μg/ml)	c (MIC ≤8 μg/ml)	b (MIC 16-64 μg/ml)	a (MIC >64 μg/ml)	a (MIC >64 μg/ml)
